The values below come from ChEMBL document CHEMBL3991601, “The target landscape of clinical kinase drugs” (Science, 2017).

Assay [1] has as its target Dual specificity protein kinase CLK3 (Homo sapiens, UniProt P49761). The class given is subcellular, K-562, COLO 205, SK-N-BE(2) and MV-4-11, Cell lysate. The following applies: read-out: Kd apparent.
Assay [2] deals with Serine/threonine-protein kinase 24 (Homo sapiens, UniProt Q9Y6E0).
Assay [3] deals with Choline-phosphate cytidylyltransferase A (Homo sapiens, UniProt P49585).
Sequence of Choline-phosphate cytidylyltransferase A (P49585 whole entry): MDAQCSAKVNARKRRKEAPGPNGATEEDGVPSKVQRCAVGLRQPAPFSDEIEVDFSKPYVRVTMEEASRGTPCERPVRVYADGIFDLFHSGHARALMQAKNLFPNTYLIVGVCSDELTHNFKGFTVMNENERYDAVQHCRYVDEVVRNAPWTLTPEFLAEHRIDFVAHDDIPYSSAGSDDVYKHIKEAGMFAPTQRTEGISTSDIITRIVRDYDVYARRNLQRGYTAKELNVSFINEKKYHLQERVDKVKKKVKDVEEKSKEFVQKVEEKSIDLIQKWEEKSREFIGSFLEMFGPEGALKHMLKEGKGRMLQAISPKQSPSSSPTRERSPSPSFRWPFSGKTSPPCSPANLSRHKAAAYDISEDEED
Assay [4] has as its target G protein-coupled receptor kinase 6 (Homo sapiens, UniProt P43250).
In assay [5] the target is Dual specificity testis-specific protein kinase 1 (Homo sapiens, UniProt Q15569).
Sequence of Dual specificity testis-specific protein kinase 1 (Q15569 whole entry): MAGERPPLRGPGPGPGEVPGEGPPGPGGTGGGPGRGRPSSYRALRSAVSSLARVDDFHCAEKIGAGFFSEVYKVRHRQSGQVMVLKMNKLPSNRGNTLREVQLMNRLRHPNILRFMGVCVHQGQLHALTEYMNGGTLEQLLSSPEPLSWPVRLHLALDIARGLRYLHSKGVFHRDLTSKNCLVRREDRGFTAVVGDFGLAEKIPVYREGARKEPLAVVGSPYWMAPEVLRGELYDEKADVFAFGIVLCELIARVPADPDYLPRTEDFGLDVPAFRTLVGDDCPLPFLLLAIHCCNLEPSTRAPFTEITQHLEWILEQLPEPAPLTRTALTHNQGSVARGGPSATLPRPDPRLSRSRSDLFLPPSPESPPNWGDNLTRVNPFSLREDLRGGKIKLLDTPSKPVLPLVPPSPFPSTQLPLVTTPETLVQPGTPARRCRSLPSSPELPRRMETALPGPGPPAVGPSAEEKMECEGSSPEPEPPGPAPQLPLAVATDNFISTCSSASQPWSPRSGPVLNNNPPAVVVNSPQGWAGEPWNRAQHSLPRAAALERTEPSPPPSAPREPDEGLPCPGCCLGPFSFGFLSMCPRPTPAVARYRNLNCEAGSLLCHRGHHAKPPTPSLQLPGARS
For assay [6], the target named is T1, Long-chain-fatty-acid--CoA ligase 5 (Homo sapiens, UniProt Q9ULC5).
T1 sequence (Q9ULC5 whole entry): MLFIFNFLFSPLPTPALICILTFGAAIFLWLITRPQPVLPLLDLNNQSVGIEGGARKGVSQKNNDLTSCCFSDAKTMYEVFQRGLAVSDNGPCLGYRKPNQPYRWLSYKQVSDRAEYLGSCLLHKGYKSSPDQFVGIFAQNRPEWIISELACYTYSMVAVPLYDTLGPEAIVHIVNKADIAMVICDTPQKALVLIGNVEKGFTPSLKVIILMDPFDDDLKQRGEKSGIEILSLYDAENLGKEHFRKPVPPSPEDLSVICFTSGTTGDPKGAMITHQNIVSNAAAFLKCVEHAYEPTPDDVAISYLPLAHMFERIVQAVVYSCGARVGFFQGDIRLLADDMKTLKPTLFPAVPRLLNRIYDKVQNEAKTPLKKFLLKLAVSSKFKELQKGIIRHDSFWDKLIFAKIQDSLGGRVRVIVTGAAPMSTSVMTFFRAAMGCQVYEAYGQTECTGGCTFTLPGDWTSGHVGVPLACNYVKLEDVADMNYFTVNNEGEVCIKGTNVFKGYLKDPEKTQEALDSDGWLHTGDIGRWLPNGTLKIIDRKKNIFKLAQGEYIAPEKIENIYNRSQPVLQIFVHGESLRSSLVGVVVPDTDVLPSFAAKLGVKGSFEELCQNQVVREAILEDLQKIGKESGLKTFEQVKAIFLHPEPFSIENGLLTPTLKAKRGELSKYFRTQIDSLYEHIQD

Assay [7] has as its target Phosphatidylethanolamine-binding protein 1 (Homo sapiens, UniProt P30086).
The target of another assay is T2, Ephrin type-A receptor 1 (Homo sapiens, UniProt P21709).
T2 sequence (P21709 whole entry): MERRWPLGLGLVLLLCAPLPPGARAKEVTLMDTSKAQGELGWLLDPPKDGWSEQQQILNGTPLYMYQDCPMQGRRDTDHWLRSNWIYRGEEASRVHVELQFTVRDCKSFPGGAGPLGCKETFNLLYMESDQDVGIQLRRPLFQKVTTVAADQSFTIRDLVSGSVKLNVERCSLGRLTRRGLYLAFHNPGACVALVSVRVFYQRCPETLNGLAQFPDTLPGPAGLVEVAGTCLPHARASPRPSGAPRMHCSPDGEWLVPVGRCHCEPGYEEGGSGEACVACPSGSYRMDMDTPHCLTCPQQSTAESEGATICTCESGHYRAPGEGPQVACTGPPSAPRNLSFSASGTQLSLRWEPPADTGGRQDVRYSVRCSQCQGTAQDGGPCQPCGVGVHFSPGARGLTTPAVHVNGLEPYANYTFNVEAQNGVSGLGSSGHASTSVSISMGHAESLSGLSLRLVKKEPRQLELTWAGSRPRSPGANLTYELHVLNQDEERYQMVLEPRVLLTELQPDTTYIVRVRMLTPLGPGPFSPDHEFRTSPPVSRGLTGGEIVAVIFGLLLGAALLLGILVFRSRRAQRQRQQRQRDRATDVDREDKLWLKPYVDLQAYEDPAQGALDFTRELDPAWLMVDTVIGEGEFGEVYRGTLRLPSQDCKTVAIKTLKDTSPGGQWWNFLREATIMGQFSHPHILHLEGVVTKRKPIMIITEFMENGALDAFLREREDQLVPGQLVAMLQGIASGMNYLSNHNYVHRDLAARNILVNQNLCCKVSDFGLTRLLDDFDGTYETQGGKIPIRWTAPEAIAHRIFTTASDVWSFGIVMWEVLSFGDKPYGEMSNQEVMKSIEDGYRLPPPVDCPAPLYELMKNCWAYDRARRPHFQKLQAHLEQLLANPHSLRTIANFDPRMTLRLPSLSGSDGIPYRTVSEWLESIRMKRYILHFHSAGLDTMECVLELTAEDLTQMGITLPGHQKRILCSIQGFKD

Assay [8] deals with Cell division cycle 7-related protein kinase (Homo sapiens, UniProt O00311).
For assay [9], the target named is Protein kinase C theta type (Homo sapiens, UniProt Q04759).
In assay [10] the target is Hepatocyte growth factor receptor (Homo sapiens, UniProt P08581).
Sequence of Hepatocyte growth factor receptor (P08581 whole entry): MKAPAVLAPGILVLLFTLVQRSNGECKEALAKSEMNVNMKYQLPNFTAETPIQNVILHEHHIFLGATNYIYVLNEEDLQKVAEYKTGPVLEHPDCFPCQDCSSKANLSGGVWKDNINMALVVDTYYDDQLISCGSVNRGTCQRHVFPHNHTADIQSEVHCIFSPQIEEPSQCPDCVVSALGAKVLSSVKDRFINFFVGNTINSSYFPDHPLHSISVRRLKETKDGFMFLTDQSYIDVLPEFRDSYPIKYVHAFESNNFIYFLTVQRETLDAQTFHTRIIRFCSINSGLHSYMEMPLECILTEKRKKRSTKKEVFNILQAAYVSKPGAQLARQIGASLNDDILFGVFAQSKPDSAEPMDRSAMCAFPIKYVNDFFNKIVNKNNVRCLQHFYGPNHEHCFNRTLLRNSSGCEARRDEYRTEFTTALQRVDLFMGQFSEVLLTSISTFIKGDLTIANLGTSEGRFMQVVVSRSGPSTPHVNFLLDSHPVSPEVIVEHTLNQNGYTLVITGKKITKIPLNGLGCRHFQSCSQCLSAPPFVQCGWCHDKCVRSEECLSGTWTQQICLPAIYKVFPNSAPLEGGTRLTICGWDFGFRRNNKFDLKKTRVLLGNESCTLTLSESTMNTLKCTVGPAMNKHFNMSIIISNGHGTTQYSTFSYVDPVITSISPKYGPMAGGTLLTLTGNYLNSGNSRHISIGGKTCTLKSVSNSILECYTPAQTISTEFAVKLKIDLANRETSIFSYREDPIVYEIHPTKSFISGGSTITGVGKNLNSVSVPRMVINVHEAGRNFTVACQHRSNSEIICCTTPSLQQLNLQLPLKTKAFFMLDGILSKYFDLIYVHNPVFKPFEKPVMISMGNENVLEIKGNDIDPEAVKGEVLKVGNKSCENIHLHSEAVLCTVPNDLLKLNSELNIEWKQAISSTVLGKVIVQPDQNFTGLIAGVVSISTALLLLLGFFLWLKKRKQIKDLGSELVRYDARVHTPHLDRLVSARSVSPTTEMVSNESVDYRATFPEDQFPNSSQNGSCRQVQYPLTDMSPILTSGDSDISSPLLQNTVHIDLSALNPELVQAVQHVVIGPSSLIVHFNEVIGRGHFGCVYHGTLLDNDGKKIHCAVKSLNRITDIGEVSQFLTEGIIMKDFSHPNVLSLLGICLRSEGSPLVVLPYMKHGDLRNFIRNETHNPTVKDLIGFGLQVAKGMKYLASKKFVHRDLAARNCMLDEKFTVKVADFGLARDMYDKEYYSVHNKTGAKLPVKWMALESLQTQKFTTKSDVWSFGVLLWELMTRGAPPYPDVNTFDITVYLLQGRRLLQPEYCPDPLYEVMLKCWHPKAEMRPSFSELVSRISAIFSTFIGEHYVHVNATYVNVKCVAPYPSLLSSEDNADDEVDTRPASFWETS
The target in assay [11] is High affinity nerve growth factor receptor (Homo sapiens, UniProt P04629).
Sequence of High affinity nerve growth factor receptor (P04629 whole entry): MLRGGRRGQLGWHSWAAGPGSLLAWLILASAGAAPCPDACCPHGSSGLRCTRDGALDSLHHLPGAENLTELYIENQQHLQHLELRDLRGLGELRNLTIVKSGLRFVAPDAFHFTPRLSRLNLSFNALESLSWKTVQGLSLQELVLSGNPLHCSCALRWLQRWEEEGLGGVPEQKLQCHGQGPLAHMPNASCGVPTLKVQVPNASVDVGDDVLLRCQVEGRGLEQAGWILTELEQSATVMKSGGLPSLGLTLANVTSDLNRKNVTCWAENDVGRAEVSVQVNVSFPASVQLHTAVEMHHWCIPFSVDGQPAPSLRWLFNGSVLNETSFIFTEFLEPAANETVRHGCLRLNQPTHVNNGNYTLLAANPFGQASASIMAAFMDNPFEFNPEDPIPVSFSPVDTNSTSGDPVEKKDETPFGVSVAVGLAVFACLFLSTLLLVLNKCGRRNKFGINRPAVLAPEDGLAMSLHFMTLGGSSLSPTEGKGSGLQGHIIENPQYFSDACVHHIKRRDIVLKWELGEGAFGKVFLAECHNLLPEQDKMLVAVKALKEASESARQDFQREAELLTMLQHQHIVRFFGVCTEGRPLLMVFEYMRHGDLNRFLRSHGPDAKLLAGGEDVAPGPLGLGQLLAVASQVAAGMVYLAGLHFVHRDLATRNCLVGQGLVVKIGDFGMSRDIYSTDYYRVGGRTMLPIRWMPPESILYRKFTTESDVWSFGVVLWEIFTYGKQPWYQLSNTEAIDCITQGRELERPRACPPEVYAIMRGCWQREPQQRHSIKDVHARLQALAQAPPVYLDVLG
Assay [12] has as its target Serine/threonine-protein kinase pim-2 (Homo sapiens, UniProt Q9P1W9).

Active and inactive are the calls of the source.
Also: in the data inactive means no Kd found up to 30 µM.

Sequence of Serine/threonine-protein kinase 24 (Q9Y6E0 whole entry): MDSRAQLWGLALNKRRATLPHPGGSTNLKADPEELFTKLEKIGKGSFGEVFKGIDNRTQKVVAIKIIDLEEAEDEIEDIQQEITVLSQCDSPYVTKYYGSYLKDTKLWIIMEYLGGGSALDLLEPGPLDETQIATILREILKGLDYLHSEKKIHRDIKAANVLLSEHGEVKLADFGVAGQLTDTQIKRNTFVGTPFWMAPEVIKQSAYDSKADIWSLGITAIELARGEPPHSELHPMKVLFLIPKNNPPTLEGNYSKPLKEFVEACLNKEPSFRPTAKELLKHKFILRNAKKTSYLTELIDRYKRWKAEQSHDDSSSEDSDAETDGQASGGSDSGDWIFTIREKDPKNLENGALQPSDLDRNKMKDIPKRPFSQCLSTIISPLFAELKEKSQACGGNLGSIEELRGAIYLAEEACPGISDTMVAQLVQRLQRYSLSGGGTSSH
Sequence of Phosphatidylethanolamine-binding protein 1 (P30086 whole entry): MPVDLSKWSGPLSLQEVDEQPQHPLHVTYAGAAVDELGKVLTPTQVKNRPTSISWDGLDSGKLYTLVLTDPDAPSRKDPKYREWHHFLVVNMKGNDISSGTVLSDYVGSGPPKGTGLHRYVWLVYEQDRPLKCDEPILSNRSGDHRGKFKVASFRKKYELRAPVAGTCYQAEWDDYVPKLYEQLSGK
Sequence of Dual specificity protein kinase CLK3 (P49761 whole entry): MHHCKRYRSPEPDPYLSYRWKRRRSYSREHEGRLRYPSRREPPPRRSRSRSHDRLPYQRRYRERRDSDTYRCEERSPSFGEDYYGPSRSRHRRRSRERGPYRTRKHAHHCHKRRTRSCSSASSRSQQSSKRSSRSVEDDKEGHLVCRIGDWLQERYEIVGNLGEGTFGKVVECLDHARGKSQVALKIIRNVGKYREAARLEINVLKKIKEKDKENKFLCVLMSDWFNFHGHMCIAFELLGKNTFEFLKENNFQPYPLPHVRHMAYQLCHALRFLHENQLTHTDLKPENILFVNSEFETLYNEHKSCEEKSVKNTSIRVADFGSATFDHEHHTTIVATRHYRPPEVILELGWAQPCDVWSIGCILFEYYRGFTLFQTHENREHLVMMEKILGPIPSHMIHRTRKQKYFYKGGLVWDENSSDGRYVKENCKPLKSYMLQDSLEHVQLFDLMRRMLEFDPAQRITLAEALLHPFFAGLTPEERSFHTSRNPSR
Sequence of G protein-coupled receptor kinase 6 (P43250 whole entry): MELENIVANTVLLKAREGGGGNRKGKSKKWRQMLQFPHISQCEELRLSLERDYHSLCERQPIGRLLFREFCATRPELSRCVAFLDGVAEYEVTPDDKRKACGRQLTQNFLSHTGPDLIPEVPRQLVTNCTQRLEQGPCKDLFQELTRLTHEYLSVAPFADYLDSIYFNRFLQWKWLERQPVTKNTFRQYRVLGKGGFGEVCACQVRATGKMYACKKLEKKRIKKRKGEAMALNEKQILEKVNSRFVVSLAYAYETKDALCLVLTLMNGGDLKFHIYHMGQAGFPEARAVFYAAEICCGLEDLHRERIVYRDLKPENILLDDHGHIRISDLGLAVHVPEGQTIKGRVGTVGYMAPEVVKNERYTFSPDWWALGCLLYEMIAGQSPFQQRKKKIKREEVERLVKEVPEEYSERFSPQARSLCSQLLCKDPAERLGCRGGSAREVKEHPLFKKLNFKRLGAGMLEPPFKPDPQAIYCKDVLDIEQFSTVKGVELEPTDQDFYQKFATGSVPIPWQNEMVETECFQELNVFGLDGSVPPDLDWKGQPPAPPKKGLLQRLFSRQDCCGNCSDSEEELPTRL

Take `Cc1cc(Nc2cc(N3CCN(C)CC3)nc(/C=C/c3ccccc3)n2)n[nH]1` [ENMD-2076]: the Kd in assay [1], in assay [2], in assay [3], in [4], in assay [5] and in assay [6] was > 30 µM (inactive) each time. Besides, the Kd in assay [7] is > 30 µM (inactive).
As to `COC(=O)N[C@@H](C)CNc1nccc(-c2cn(C(C)C)nc2-c2cc(Cl)cc(NS(C)(=O)=O)c2F)n1` [ENCORAFENIB], the Kd on Ephrin type-A receptor 1 is > 30 µM (inactive); in assay [1] it was > 30 µM (inactive); in assay [2], > 30 µM (inactive); in [3], 0.041 µM; in assay [4], > 30 µM (inactive); in assay [8], > 30 µM (inactive). Moreover, the Kd in [9], in assay [10], in assay [7] and in assay [11] was > 30 µM (inactive) in each case.
For `CCS(=O)(=O)N1CC(CC#N)(n2cc(-c3ncnc4[nH]ccc34)cn2)C1` [BARICITINIB], the Kd (on Ephrin type-A receptor 1; in assay [1]; in assay [2]; in assay [4]; in assay [5]; in [6]) was > 30 µM (inactive) throughout. In addition, the Kd in assay [9], in [10] and in [7] was > 30 µM (inactive) throughout.
Consider `C=CC(=O)N1CCC(Oc2cc3c(Nc4ccc(Cl)c(Cl)c4F)ncnc3cc2OC)CC1` [POZIOTINIB], for which the Kd was > 30 µM (inactive) in [1]; > 30 µM (inactive) in [2]; > 30 µM (inactive) in [3]; > 30 µM (inactive) in assay [4]; > 30 µM (inactive) in assay [5]; 0.794 µM in assay [10]. In addition, the Kd in assay [11] is > 30 µM (inactive).
With `Cc1cc2c(F)c(Oc3ncnn4cc(OC[C@@H](C)OC(=O)[C@H](C)N)c(C)c34)ccc2[nH]1` [BRIVANIB ALANINATE], the Kd (at Ephrin type-A receptor 1; in assay [1]; in [12]; in assay [2]; in assay [3]; in assay [4]) was > 30 µM (inactive) in each case. Besides, the Kd in assay [5], in assay [6], in [9], in [10], in [7] and in assay [11] was > 30 µM (inactive) in each case.
With `O=C(Nc1cccc(Cl)c1)Nc1ncc(CCNc2ncnc3ccsc23)s1` [SNS-314], the Kd (at Ephrin type-A receptor 1; in [1]; in [2]; in assay [4]; in assay [6]; in assay [7]) was > 30 µM (inactive) in each case.
Consider `C[C@@H]1CN(Cc2ccc(F)cc2)[C@@H](C)CN1C(=O)c1cc2c(C(=O)C(=O)N(C)C)cn(C)c2cc1Cl` [TALMAPIMOD], for which the Kd (at Ephrin type-A receptor 1; in [1]; in assay [4]; in [8]; in [5]; in assay [6]) was > 30 µM (inactive) in each case. Further, the Kd in [9], in assay [10], in assay [7] and in assay [11] was > 30 µM (inactive) in each case.
Consider `COc1cc2nccc(Oc3ccc(NC(=O)NC4CC4)c(Cl)c3)c2cc1C(N)=O` [LENVATINIB], for which the Kd (at Ephrin type-A receptor 1; in [1]; in assay [2]; in assay [4]; in assay [5]; in assay [6]) was > 30 µM (inactive) throughout. Further, the Kd in assay [9], in assay [10] and in [7] was > 30 µM (inactive) each time.
